What is called melting point is the temperature, or range, at which the solid turns liquid. As a reminder, the GI50 is the concentration giving 50% growth inhibition.

Where two headings read alike, the source gives them in different places.

In data set [1] the target is T1, DYRK2 (Homo sapiens, UniProt Q92630).
T1 sequence (Q92630 1-601): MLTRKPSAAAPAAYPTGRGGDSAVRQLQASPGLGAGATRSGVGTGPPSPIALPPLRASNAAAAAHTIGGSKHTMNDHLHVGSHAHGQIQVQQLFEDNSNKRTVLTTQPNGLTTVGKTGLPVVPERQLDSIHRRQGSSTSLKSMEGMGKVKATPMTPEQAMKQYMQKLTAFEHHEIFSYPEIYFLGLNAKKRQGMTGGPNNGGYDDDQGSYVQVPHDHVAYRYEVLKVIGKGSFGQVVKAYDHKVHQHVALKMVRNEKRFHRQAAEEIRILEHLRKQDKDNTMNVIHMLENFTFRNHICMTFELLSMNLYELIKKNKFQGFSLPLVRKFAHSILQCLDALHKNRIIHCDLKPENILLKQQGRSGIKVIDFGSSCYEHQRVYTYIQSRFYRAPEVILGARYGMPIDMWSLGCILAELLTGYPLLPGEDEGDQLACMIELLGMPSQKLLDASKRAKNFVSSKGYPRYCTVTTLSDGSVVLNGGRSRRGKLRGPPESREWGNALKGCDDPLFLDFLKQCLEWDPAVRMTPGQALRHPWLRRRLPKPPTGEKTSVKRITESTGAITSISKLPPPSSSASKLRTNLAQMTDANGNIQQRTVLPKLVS
Briefly: radiometric protein kinase assay. In kind it is biochemical. The conditions noted are these: 15 μmol/L ATP; read-out: IC50 DYRK 2.

For data set [2], the target named is T2, DYRK3 (Homo sapiens, UniProt O43781).
T2 sequence (O43781 1-588): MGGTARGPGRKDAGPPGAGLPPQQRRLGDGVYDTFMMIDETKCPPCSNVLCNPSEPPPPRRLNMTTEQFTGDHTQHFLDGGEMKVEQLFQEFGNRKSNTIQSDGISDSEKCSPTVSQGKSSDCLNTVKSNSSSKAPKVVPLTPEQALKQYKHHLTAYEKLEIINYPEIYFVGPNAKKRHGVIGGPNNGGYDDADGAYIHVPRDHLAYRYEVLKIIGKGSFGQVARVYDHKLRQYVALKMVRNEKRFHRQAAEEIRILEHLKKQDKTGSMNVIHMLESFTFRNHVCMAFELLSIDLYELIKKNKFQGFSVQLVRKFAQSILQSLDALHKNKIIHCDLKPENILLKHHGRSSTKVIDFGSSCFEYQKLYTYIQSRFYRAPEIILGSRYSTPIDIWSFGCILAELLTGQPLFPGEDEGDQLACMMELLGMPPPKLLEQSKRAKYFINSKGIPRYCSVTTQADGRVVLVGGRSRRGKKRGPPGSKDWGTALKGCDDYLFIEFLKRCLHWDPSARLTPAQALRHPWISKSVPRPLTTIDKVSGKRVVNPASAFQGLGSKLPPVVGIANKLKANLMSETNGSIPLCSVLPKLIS
In words: radiometric protein kinase assay. The note with it: 15 μmol/L ATP; read-out: IC50 DYRK 3. The class given is biochemical.

In data set [3] the target is T3, CDK5/p25 (Homo sapiens, UniProt Q00535).
T3 construct: made in house
T3 sequence (Q00535 whole entry): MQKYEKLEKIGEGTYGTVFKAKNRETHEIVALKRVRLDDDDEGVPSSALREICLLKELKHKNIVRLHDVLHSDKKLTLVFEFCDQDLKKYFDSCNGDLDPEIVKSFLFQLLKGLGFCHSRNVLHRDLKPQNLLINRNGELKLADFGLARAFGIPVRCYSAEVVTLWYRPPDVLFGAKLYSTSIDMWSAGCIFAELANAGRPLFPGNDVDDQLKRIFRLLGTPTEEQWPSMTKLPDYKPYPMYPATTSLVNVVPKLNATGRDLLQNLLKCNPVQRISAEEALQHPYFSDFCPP
T3 sequence (Q15078 99-307 partner limits assumed): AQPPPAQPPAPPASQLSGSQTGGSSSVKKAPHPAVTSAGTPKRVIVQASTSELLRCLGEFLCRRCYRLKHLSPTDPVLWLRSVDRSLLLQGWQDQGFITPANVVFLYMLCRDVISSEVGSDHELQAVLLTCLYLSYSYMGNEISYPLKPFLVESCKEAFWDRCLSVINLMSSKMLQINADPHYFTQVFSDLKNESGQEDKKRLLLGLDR
In words: radiometric protein kinase assay. The class given is biochemical. The conditions noted are these: 15 μmol/L ATP.

For data set [4], the target named is GSK-3. In words: radiometric protein kinase assay. The class given is biochemical, porcine. The conditions noted are these: 15 μmol/L ATP; read-out: IC50 GSK3.
In data set [5] the target is CDK1/cyclin B. Briefly: radiometric protein kinase assay. The class given is biochemical, starfish. The note with it: 15 μmol/L ATP.
In data set [6] the target is T4, CDK2/cyclin A (Homo sapiens, UniProt P24941).
T4 construct: made in house
Briefly: radiometric protein kinase assay. In kind it is biochemical. The note with it: 15 μmol/L ATP; read-out: IC50 CDK2/cyclinA.

For data set [7], the target named is CLK3 (Mus musculus, UniProt O35492). Briefly: radiometric protein kinase assay.
CLK3, sequence (O35492 whole entry): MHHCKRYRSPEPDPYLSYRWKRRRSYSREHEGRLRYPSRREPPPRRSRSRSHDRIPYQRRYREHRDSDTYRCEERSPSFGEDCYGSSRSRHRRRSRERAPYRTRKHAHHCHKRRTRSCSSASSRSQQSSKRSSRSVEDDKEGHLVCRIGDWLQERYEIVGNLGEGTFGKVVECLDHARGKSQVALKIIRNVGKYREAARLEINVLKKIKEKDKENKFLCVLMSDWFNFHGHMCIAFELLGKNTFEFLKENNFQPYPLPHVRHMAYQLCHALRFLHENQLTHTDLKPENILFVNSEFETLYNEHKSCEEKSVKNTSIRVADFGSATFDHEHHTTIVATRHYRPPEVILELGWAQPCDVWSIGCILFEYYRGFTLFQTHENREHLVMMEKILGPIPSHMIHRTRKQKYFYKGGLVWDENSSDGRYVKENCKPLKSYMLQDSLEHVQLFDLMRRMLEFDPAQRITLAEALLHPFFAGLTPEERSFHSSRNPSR
Data set [8] deals with CLK4 (Mus musculus, UniProt O35493). In words: radiometric protein kinase assay.
CLK4, sequence (O35493 whole entry): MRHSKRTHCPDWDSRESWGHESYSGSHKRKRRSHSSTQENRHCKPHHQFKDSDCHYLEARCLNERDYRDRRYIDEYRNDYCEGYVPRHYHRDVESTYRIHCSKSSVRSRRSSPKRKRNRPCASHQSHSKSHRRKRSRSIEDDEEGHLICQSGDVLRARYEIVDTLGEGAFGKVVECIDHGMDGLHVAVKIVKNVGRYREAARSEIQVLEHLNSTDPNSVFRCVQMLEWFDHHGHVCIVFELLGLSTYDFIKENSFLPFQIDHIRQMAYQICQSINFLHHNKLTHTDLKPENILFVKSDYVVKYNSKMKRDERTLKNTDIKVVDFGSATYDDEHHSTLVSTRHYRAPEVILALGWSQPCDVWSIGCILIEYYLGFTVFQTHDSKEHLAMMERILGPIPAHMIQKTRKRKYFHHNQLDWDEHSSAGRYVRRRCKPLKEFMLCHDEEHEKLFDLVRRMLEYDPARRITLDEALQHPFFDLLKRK
Method: Buffers. Buffer A: 10 mM MgCl2, 1 mM EGTA, 1 mM DTT, 25 mM Tris-HCl pH 7.5, 50 μg heparin/mL. Buffer C: 60 mM β-glycerophosphate, 15 mM p-nitrophenylphosphate, 25 mM MOPS (pH 7.2), 15 mM EGTA, 15 mM MgCl2, 1 mM DTT, 1 mM sodium vanadate, 1 mM phenylphosphate.
Kinase activities were assayed in buffer A or C at 30°C at a final ATP concentration of 15 μmol/L. Blank values were subtracted and activities were expressed in percent of the maximal activity, i.e. in the absence of inhibitors. Controls were performed with appropriate dilutions of DMSO.
Their kinase activity was assayed in buffer A, with 1 mg histone H1/mL, in the presence of 15 μmol/L [γ-33P] ATP (3,000 Ci/mmol; 10 mCi/mL) in a final volume of 30 μL. After 30 min incubation at 30°C, the reaction was stopped by harvesting onto P81 phosphocellulose supernatant (Whatman) using a FilterMate harvester (Packard) and washing in 1% phosphoric acid. Scintillation fluid was added and the radioactivity measured in a Packard counter.
All data points for construction of dose response curves were recorded in triplicate.
The target of data set [9] is DYRK1A (Homo sapiens, UniProt Q13627). In words: radiometric protein kinase assay. In kind it is biochemical. The note with it: 15 μmol/L ATP; read-out: IC50 DYRK 1A.
The target of data set [10] is CDK9/cyclin T (Homo sapiens, UniProt P50750). In words: radiometric protein kinase assay.
CDK9/cyclin T, sequence (P50750 whole entry): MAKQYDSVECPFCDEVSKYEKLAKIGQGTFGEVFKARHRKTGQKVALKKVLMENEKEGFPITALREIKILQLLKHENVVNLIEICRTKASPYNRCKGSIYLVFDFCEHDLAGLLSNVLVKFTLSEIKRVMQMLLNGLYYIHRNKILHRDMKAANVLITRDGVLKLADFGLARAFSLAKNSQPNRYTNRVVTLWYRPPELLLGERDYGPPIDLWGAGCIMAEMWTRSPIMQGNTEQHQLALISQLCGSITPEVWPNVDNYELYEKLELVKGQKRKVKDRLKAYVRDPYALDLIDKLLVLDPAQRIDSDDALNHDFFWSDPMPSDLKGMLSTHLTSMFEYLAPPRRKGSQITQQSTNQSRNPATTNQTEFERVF
CDK9/cyclin T, sequence (O60563 whole entry partner): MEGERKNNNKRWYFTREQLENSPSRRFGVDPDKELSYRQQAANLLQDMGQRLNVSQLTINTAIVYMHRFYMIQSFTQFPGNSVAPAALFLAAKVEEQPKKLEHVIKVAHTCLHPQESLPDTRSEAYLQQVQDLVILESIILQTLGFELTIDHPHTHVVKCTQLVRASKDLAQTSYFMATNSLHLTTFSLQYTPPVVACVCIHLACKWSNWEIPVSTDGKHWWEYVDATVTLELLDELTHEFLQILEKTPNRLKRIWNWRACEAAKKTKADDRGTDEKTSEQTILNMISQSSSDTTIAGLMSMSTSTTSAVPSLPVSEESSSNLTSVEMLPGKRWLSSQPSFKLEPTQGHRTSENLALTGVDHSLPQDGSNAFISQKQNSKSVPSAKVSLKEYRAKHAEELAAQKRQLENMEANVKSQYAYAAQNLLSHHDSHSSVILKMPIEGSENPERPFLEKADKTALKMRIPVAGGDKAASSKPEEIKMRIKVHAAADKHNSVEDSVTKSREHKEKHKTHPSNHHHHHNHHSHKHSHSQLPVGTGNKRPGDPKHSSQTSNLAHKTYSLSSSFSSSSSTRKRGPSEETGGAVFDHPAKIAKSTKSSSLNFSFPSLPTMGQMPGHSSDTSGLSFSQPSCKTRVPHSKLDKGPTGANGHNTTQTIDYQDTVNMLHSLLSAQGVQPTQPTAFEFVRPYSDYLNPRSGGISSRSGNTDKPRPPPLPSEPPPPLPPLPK
Data set [11] deals with CLK2 (Mus musculus, UniProt O35491). Briefly: radiometric protein kinase assay.
CLK2, sequence (O35491 whole entry): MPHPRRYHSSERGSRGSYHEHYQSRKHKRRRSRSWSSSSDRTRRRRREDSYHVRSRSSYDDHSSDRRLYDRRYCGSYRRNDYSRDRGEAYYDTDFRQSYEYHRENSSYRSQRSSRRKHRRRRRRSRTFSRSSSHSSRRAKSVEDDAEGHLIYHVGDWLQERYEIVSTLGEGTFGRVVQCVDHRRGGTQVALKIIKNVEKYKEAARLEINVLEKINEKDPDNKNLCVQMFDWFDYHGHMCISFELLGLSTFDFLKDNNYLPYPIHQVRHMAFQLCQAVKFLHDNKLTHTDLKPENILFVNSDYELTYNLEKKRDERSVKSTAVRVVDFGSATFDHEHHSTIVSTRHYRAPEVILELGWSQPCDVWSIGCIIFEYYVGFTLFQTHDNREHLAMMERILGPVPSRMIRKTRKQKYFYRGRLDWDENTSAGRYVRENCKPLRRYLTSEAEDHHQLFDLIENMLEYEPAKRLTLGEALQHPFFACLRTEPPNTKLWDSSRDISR
Data set [12] concerns the target CK1δ/ε. Briefly: radiometric protein kinase assay. In kind it is biochemical, porcine. The conditions noted are these: 15 μmol/L ATP; read-out: IC50 CK1.
Data set [13] addresses CLK1 (Mus musculus, UniProt P22518). In words: radiometric protein kinase assay.
The target in data set [14] is DYRK1B (Homo sapiens, UniProt Q9Y463). Briefly: radiometric protein kinase assay. The class given is biochemical. The conditions noted are these: 15 μmol/L ATP; read-out: IC50 DYRK 1B.
DYRK1B, sequence (Q9Y463 whole entry): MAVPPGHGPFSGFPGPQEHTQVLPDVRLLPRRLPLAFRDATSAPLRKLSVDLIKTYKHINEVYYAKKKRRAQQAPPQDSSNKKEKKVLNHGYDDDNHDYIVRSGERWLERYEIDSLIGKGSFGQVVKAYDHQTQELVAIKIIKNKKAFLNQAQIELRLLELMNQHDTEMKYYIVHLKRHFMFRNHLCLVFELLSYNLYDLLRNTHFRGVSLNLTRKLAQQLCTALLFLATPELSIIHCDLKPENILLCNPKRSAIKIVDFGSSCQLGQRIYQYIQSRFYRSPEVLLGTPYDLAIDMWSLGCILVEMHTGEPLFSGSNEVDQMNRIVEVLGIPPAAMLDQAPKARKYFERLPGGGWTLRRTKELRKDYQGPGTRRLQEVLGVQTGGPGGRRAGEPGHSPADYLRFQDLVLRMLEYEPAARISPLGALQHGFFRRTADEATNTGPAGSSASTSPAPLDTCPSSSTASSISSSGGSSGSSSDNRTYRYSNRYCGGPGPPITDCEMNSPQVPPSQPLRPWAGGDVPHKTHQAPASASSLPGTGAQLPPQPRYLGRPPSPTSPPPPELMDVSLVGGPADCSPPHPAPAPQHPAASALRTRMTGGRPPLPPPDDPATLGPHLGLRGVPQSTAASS
The subject of data set [15] is DYRK1A. Set-up: method as in PMID 21450467. The note with it: cited from earlier work.
Data set [16] deals with CLK1. Set-up: method as in PMID 21450467. The note with it: cited from earlier work.
The test system of data set [17] is CLK1. The note with it: cited from earlier work.
The subject of data set [18] is HCT116. The conditions noted are these: colorectal cancer cell line; cited from earlier work.
The subject of data set [19] is DYRK1A. The conditions noted are these: cited from earlier work.
The test system of data set [20] is DYRK1A. Also noted: method as in PMID 28555643. The conditions noted are these: 1 μM; cited from earlier work.
In data set [21] the test system is CLK1. Set-up: method as in PMID 28555643. The conditions noted are these: 1 μM; cited from earlier work.
Data set [22] relates to DYRK1A. Also noted: method as in PMID 28561591. The note with it: cited from earlier work.
Data set [23] concerns CLK1. Set-up: method as in PMID 28561591. The conditions noted are these: cited from earlier work.

CLK1 (Mus musculus, UniProt P22518), sequence (P22518 whole entry): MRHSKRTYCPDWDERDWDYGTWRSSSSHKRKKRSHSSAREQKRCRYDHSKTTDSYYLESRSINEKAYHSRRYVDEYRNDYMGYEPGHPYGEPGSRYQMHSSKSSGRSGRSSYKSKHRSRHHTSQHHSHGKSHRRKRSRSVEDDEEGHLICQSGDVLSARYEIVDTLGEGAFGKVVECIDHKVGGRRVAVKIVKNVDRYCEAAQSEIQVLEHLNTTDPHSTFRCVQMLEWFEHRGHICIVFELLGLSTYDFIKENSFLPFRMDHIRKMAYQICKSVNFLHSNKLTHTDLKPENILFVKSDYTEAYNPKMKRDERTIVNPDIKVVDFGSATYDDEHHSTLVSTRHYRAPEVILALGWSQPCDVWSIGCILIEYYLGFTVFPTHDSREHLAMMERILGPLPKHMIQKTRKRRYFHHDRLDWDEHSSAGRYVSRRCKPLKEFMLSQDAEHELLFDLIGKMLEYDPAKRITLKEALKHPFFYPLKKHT

Regarding `COc1cccc(-c2c[nH]c3c4c(ccc23)CNC4=O)c1` [8f, 3-(3-Methoxyphenyl)-6,7-dihydropyrrolo[3,4-g]indol-8(1H)-one], the melting point is 207 to 208 °C. The IC50 in [1] is 2.1 µM. For the same molecule, the IC50 in data set [2] turned out to be 5.4 µM. For the same molecule, in data set [3], the IC50 was over 10 µM. Moreover, in [4], the IC50 was over 10 µM. The IC50 in data set [5] was over 10 µM. In [6], the IC50 was over 10 µM. This molecule showed an IC50 in [7] of 2.8 µM. For the same molecule, the IC50 in data set [8] was found to be 0.11 µM. In addition, the IC50 in [9] stood at 3.8 µM. In data set [10], this molecule yielded an IC50 of over 10 µM. This molecule also returned an IC50 in data set [11] of 0.32 µM. Besides, the IC50 in data set [12] was over 10 µM. This molecule also returned an IC50 in [13] of 0.11 µM. In addition, in data set [14], the IC50 was found to be 1.9 µM.

For `O=C1NCc2ccc3c(-c4cccc([N+](=O)[O-])c4)c[nH]c3c21` [8j, 3-(3-Nitrophenyl)-6,7-dihydropyrrolo[3,4-g]indol-8(1H)-one], the melting point was 237 to 238 °C (dec.). In [1], the IC50 was 4.9 µM. The IC50 in [2] was 1.9 µM. For the same molecule, the IC50 in [3] was over 10 µM. In addition, in [4], the IC50 was over 10 µM. This molecule also came in with an IC50 in data set [5] of over 10 µM. In addition, the IC50 in data set [6] was over 10 µM. The molecule also registered an IC50 in data set [7] of 8.5 µM. Also, in [8], the IC50 was 0.061 µM. Besides, in data set [9], the IC50 is over 10 µM. Moreover, the IC50 in [10] is over 10 µM. Also, in [11], the IC50 was 0.37 µM. Also, the IC50 in [12] was over 10 µM. For the same molecule, the IC50 in data set [13] amounted to 0.038 µM. For the same molecule, the IC50 in data set [14] was determined as 1.5 µM.

Molecule `Cn1cc(-c2ccccc2)c2ccc3c(c21)C(=O)NC3` [15a, 1-Methyl-3-phenyl-6,7-dihydropyrrolo[3,4-g]indol-8(1H)-one] yielded a melting point of 255 to 256 °C. Further, the IC50 in [1] was over 10 µM. For the same molecule, in data set [2], the IC50 is over 10 µM. Besides, the IC50 in [3] was over 10 µM. In addition, in data set [4], the IC50 was over 10 µM. Also, the IC50 in [5] is over 10 µM. Further, the IC50 in [6] is over 10 µM. In [7], this molecule returned an IC50 of over 10 µM. In [8], this molecule gave an IC50 of 0.16 µM. Moreover, the IC50 in [9] is over 10 µM. In data set [10], the IC50 is over 10 µM. In addition, the IC50 in [11] came out at 1.1 µM. Besides, the IC50 in data set [12] is over 10 µM. In data set [13], this molecule had an IC50 of 0.19 µM. Further, the IC50 in data set [14] was over 10 µM.

In the case of `CCOC(=O)Cn1cc(-c2ccccc2)c2ccc3c(c21)C(=O)NC3` [15d, Ethyl 2-(8-oxo-3-phenyl-7,8-dihydropyrrolo[3,4-g]indol-1(6H)-yl)acetate], the melting point fell in the range of 226 to 227 °C. Besides, the IC50 in data set [3] was over 10 µM. Moreover, the IC50 in data set [4] is over 10 µM. In data set [5], this molecule gave an IC50 of over 10 µM. Also, the IC50 in [6] is over 10 µM. Further, the IC50 in data set [9] was over 10 µM. Also, the IC50 in [10] is over 10 µM. The IC50 in [12] is over 10 µM. The IC50 in data set [13] was over 10 µM.

Turning to `O=C1NCc2c(-c3ccccc3F)cc3c(-c4ccccc4)c[nH]c3c21` [17b, 5-(2-Fluorophenyl)-3-phenyl-6,7-dihydropyrrolo[3,4-g]indol-8(1H)-one], the melting point was 136 to 139 °C. In data set [1], the IC50 was over 10 µM. For the same molecule, the IC50 in data set [2] was over 10 µM. In addition, the IC50 in [3] is over 10 µM. For the same molecule, the IC50 in [4] is over 10 µM. The molecule further had an IC50 in data set [5] of over 10 µM. For the same molecule, the IC50 in data set [6] was over 10 µM. In addition, the IC50 in [7] is over 10 µM. In [8], this molecule yielded an IC50 of 0.91 µM. For the same molecule, the IC50 in data set [9] is over 10 µM. This molecule returned an IC50 in [10] of over 10 µM. In data set [11], this molecule gave an IC50 of 4.1 µM. Also, the IC50 in [12] is over 10 µM. Further, in data set [13], the IC50 was found to be 5.8 µM. For the same molecule, the IC50 in data set [14] is over 10 µM.

As to `Cc1nc(CNc2ncnc3ccc(-c4ccc5c(c4)OCO5)cc23)cs1` [NCGC00185963], the IC50 in data set [15] was 0.206 µM; in data set [16], 0.096 µM.

Turning to `CN1CCN(C(=O)C(C)(C)c2ccc(C(=O)Nc3cn4cc(-c5ccncc5)ccc4n3)cc2)CC1` [T3], the IC50 in data set [17] is 0.00067 µM; in [19] it was 0.26 µM. Further, the concentration for 50% growth inhibition (GI50) in data set [18] is 0.13 µM.

With `c1cc(-c2ccc3[nH]ncc3c2)ccn1` [TG693], in data set [20], the “inhibition of DYRK1A activity” value is recorded as 84%. Moreover, in [21], the “inhibition of CLK1 activity” value is 93%.

For `COc1ccc2sc(C(=O)N(C)Cc3cccc(F)c3)cc2c1` [compound 4], the figures for the IC50 in data set [22] and in [23] were 0.34 µM and 0.007 µM, respectively.
